The target of experiment [1] is T1, purified recombinant human PI3K enzyme δ (Homo sapiens, UniProt O00329).
T1 construct: purchased Invitrogen, USA
As to the kind of experiment: Inhibition of PI3-Kinase enzymatic activity (HTRF enzyme assay), δ. Type of experiment: biochemical. As to conditions: 1 μM compound; PI3K δ 50 ng/well; PIP2 10 μM; ATP 200 μM; read-out: Percentage inhibition of PI3K activity, δ. The procedure:
(§1) Inhibition of PI3-Kinase enzymatic activity was determined using a homogeneous time-resolved fluorescence (HTRF) kit from Eurofins. 1 μM of Compounds of present invention were premixed with DMSO. The experiment was initiated by mixing 1.0% DMSO as vehicle/compounds with purified recombinant human PI3K enzyme {δ (50 ng/well); γ (100 ng/well)} (Invitrogen, USA) and substrate (PIP2, 10 μM) in the wells and incubation for 15 min at room temperature. There after ATP was added (δ at 200 μM, and γ at 50 μM) in to the wells containing reaction mixture, followed by re-incubation for 30 minutes at room temperature. Reaction was terminated by addition of a stopping solution and was further incubated for 4 hours at room temperature before reading using Envision multimode reader (Perkin Elmer). Percentage inhibition of PI3K activity was calculated by determining ratio of specific europium 665 nm energy transfer signal to reference 615 nm signals.
In general terms: TR-FRET usually uses a lanthanide donor and a delayed reading to cut background.

Experiment [2] concerns the target T2, purified recombinant human PI3K enzyme γ (Homo sapiens, UniProt P48736).
T2 construct: purchased Invitrogen, USA
The experiment is described as follows: Inhibition of PI3-Kinase enzymatic activity (HTRF enzyme assay), γ. To be noted: 1 μM compound; PI3K γ 100 ng/well; PIP2 10 μM; ATP 50 μM; read-out: Percentage inhibition of PI3K activity, γ. Type of experiment: biochemical. The protocol:
as §1

T1 sequence (O00329 whole entry): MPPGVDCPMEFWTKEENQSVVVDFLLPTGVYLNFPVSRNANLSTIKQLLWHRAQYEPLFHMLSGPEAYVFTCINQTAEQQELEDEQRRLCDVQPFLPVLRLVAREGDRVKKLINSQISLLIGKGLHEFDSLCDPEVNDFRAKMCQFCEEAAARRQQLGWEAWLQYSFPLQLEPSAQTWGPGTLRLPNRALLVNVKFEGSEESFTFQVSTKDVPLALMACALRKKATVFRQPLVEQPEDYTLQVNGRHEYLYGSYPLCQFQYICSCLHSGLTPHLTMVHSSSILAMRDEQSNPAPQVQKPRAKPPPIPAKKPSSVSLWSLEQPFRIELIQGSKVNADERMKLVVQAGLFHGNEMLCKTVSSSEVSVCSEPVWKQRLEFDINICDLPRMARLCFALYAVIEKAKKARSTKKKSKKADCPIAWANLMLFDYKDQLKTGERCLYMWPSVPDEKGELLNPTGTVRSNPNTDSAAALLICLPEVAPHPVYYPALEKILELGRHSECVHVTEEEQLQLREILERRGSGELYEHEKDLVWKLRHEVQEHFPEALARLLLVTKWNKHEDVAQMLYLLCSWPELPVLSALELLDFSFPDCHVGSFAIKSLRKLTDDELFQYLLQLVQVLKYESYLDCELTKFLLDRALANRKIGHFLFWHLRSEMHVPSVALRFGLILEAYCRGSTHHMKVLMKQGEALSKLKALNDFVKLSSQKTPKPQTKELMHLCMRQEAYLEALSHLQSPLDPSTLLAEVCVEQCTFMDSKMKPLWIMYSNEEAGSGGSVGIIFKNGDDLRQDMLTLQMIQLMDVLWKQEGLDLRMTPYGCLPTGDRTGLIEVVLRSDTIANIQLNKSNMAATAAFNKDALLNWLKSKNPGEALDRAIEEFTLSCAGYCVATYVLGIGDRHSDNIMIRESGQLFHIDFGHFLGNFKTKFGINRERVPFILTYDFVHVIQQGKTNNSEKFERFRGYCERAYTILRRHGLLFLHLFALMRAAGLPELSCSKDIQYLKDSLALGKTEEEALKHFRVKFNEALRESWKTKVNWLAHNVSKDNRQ
T1 sequence (P27986 whole entry partner): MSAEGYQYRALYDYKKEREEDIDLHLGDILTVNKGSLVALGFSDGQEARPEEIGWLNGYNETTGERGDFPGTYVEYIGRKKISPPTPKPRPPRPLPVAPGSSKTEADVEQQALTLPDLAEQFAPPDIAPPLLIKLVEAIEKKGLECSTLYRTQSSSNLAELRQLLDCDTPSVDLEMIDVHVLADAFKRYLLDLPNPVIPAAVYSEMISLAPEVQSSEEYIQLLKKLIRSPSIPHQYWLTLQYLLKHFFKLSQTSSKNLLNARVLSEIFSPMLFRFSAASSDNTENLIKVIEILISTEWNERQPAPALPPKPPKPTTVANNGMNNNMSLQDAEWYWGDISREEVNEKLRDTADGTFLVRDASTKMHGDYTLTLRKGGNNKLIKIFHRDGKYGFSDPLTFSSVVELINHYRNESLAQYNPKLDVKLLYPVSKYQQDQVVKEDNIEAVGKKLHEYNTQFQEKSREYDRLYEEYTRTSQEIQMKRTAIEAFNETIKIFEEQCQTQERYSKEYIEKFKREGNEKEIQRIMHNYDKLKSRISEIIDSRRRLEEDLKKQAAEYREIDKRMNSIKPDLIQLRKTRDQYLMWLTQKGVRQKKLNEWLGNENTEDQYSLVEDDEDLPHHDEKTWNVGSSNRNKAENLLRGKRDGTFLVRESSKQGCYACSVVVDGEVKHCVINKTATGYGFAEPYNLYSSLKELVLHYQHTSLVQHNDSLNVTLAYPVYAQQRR
T2 sequence (P48736 whole entry): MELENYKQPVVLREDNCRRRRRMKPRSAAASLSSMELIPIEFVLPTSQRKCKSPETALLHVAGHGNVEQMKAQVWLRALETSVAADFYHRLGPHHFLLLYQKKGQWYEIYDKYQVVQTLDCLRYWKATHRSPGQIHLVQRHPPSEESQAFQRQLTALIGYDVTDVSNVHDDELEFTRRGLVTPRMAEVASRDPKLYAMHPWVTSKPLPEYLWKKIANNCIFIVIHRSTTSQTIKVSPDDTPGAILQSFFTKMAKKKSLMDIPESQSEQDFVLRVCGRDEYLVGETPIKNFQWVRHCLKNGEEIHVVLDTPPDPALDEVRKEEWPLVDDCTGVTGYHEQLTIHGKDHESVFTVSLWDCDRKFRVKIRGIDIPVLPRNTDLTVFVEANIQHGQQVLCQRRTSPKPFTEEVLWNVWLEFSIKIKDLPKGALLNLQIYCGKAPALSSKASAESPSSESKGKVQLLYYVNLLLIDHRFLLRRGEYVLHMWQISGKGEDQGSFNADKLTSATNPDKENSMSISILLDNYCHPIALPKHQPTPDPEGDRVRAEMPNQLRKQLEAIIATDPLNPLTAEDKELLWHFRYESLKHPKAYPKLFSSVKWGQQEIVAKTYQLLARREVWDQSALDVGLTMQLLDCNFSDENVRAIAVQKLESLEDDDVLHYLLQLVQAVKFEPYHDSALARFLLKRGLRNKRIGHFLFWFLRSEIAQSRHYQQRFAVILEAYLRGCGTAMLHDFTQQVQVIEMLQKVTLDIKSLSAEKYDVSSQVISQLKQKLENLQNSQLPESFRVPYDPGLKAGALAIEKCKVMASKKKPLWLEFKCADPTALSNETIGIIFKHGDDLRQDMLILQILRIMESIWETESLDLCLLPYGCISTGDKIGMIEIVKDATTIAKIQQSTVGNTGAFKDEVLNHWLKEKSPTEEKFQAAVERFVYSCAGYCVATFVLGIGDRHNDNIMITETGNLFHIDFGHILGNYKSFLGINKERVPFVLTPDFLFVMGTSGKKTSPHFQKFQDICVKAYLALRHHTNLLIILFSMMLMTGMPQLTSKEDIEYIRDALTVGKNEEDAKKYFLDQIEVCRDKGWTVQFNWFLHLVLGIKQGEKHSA

In general, inhibition refers to the relative decrease from the control value, in per cent. As to `CC1(C)Cc2c(-c3nn(Cc4nc5cccc(C#CCO)c5c(=O)n4-n4cccc4)c4ncnc(N)c34)ccc(O)c2O1` [compound 19, 2-{[4-amino-3-(7-hydroxy-2,2-dimethyl-2,3-dihydro-1-benzofuran-4-yl)-1H-pyrazolo[3,4-d]pyrimidin-1-yl]methyl}-5-(3-hydroxyprop-1-yn-1-yl)-3-(1H-pyrrol-1-yl)quinazolin-4(3H)-one], the inhibition at 1 µM in experiment [1] and in experiment [2] was 80 to 100% throughout.

Take `C#Cc1cccc2nc(Cn3nc(-c4ccc(O)c5c4CC(C)(C)O5)c4c(N)ncnc43)n(-n3cccc3)c(=O)c12` [compound 20, 2-{[4-amino-3-(7-hydroxy-2,2-dimethyl-2,3-dihydro-1-benzofuran-4-yl)-1H-pyrazolo[3,4-d]pyrimidin-1-yl]methyl}-5-ethynyl-3-(1H-pyrrol-1-yl)quinazolin-4(3H)-one]: the inhibition at 1 µM in experiment [1] and in experiment [2] was 80 to 100% in each case.

As to `CC1(C)Cc2c(-c3nn(Cc4nc5cccc(-c6ccncc6)c5c(=O)n4C4(c5ccccc5)CC4)c4ncnc(N)c34)ccc(O)c2O1` [compound 21, 2-{[4-amino-3-(7-hydroxy-2,2-dimethyl-2,3-dihydro-1-benzofuran-4-yl)-1H-pyrazolo[3,4-d]pyrimidin-1-yl]methyl}-3-(1-phenylcyclopropyl)-5-(pyridin-4-yl)quinazolin-4(3H)-one], the inhibition at 1 µM in experiment [1] is 80 to 100%; in experiment [2], 60 to 80%.

As to `Cn1nccc1-c1cccc2nc(Cn3nc(-c4ccc(O)c5c4CC(C)(C)O5)c4c(N)ncnc43)n(-n3cccc3)c(=O)c12` [compound 22, 2-{[4-amino-3-(7-hydroxy-2,2-dimethyl-2,3-dihydro-1-benzofuran-4-yl)-1H-pyrazolo[3,4-d]pyrimidin-1-yl]methyl}-5-(1-methyl-1H-pyrazol-5-yl)-3-(1H-pyrrol-1-yl)quinazolin-4(3H)-one], the results for the inhibition at 1 µM in experiment [1] and in experiment [2] were 80 to 100% and 60 to 80%, respectively.

On to `CC1(C)Cc2c(-c3nn(Cc4nc5cccc(-c6ccoc6)c5c(=O)n4-n4cccc4)c4ncnc(N)c34)ccc(O)c2O1` [compound 23, 2-{[4-amino-3-(7-hydroxy-2,2-dimethyl-2,3-dihydro-1-benzofuran-4-yl)-1H-pyrazolo[3,4-d]pyrimidin-1-yl]methyl}-5-(furan-3-yl)-3-(1H-pyrrol-1-yl)quinazolin-4(3H)-one], for which the inhibition at 1 µM in experiment [1] and in experiment [2] was 80 to 100% throughout.

With `CC1(C)Cc2c(-c3nn(Cc4nc5cccc(C#CCO)c5c(=O)n4C4(c5ccccc5)CC4)c4ncnc(N)c34)ccc(O)c2O1` [compound 24, 2-{[4-amino-3-(7-hydroxy-2,2-dimethyl-2,3-dihydro-1-benzofuran-4-yl)-1H-pyrazolo[3,4-d]pyrimidin-1-yl]methyl}-5-(3-hydroxyprop-1-yn-1-yl)-3-(1-phenylcyclopropyl)quinazolin-4(3H)-one], the inhibition at 1 µM in experiment [1] and in experiment [2] was 80 to 100% each time.

`CC1(C)Cc2c(-c3nn(Cc4nc5cccc(-c6ccsc6)c5c(=O)n4C4(c5ccccc5)CC4)c4ncnc(N)c34)ccc(O)c2O1` [compound 25, 2-{[4-amino-3-(7-hydroxy-2,2-dimethyl-2,3-dihydro-1-benzofuran-4-yl)-1H-pyrazolo[3,4-d]pyrimidin-1-yl]methyl}-3-(1-phenylcyclopropyl)-5-(thiophen-3-yl)quinazolin-4(3H)-one]: the inhibition at 1 µM in experiment [1] and in experiment [2] was 80 to 100% each time.

Consider `CC1(C)Cc2c(-c3nn(Cc4nc5cccc(F)c5c(=O)n4C4(c5ccccc5)CC4)c4ncnc(N)c34)ccc(O)c2O1` [compound 26, 2-{[4-amino-3-(7-hydroxy-2,2-dimethyl-2,3-dihydro-1-benzofuran-4-yl)-1H-pyrazolo[3,4-d]pyrimidin-1-yl]methyl}-5-fluoro-3-(1-phenylcyclopropyl)quinazolin-4(3H)-one], for which the inhibition at 1 µM in experiment [1] is 80 to 100%; in experiment [2] it was 40 to 60%.

Regarding `CC(=O)NCC#Cc1cccc2nc(Cn3nc(-c4ccc(O)c5c4CC(C)(C)O5)c4c(N)ncnc43)n(-n3cccc3)c(=O)c12` [compound 28, N-{3-[2-{[4-amino-3-(7-hydroxy-2,2-dimethyl-2,3-dihydro-1-benzofuran-4-yl)-1H-pyrazolo[3,4-d]pyrimidin-1-yl]methyl}-4-oxo-3-(1H-pyrrol-1-yl)-3,4-dihydroquinazolin-5-yl]prop-2-yn-1-yl}acetamide], the inhibition at 1 µM in experiment [1] and in experiment [2] was 80 to 100% in each case.

Regarding `CC1(C)Cc2c(-c3nn(Cc4nc5cccc(C#CCNC(=O)C6CC6)c5c(=O)n4-n4cccc4)c4ncnc(N)c34)ccc(O)c2O1` [compound 29, N-{3-[2-{[4-amino-3-(7-hydroxy-2,2-dimethyl-2,3-dihydro-1-benzofuran-4-yl)-1H-pyrazolo[3,4-d]pyrimidin-1-yl]methyl}-4-oxo-3-(1H-pyrrol-1-yl)-3,4-dihydroquinazolin-5-yl]prop-2-yn-1-yl}cyclopropanecarboxamide], the inhibition at 1 µM in experiment [1] and in experiment [2] was 80 to 100% in each case.

Turning to `Cn1nccc1-c1cccc2nc(Cn3nc(-c4ccc(O)c5c4CC(C)(C)O5)c4c(N)ncnc43)n(C3(c4ccccc4)CC3)c(=O)c12` [compound 30, 2-{[4-amino-3-(7-hydroxy-2,2-dimethyl-2,3-dihydro-1-benzofuran-4-yl)-1H-pyrazolo[3,4-d]pyrimidin-1-yl]methyl}-5-(1-methyl-1H-pyrazol-5-yl)-3-(1-phenylcyclopropyl)quinazolin-4(3H)-one], the inhibition at 1 µM lay in the range of 80 to 100% in experiment [1] and 60 to 80% in experiment [2].

For `Cc1cccc(C2(n3c(Cn4nc(-c5ccc(O)c6c5CC(C)(C)O6)c5c(N)ncnc54)nc4cccc(C#CCO)c4c3=O)CC2)c1` [compound 31, 2-{[4-amino-3-(7-hydroxy-2,2-dimethyl-2,3-dihydro-1-benzofuran-4-yl)-1H-pyrazolo[3,4-d]pyrimidin-1-yl]methyl}-5-(3-hydroxyprop-1-yn-1-yl)-3-[1-(3-methylphenyl)cyclopropyl]quinazolin-4(3H)-one], the inhibition at 1 µM was 80 to 100% in experiment [1] and 60 to 80% in experiment [2].

Take `Cc1cccc(C2(n3c(Cn4nc(-c5ccc(O)c6c5CC(C)(C)O6)c5c(N)ncnc54)nc4cccc(-c5ccnn5C)c4c3=O)CC2)c1` [compound 33, 2-{[4-amino-3-(7-hydroxy-2,2-dimethyl-2,3-dihydro-1-benzofuran-4-yl)-1H-pyrazolo[3,4-d]pyrimidin-1-yl]methyl}-3-[1-(3-methylphenyl)cyclopropyl]-5-(1-methyl-1H-pyrazol-5-yl)quinazolin-4(3H)-one]: the inhibition at 1 µM lay within 80 to 100% in experiment [1] and 60 to 80% in experiment [2].

Consider `CC1(C)Cc2c(-c3nn(Cc4nc5cccc(C#CCN6CCOCC6)c5c(=O)n4-n4cccc4)c4ncnc(N)c34)ccc(O)c2O1` [compound 35, 2-{[4-amino-3-(7-hydroxy-2,2-dimethyl-2,3-dihydro-1-benzofuran-4-yl)-1H-pyrazolo[3,4-d]pyrimidin-1-yl]methyl}-5-[3-(morpholin-4-yl)prop-1-yn-1-yl]-3-(1H-pyrrol-1-yl)quinazolin-4(3H)-one], for which the inhibition at 1 µM in experiment [1] lay in the range of 80 to 100%; in experiment [2], 60 to 80%.

Turning to `Cc1ccc(C2(n3c(Cn4nc(-c5ccc(O)c6c5CC(C)(C)O6)c5c(N)ncnc54)nc4cccc(C#CCO)c4c3=O)CC2)cc1` [compound 37, 2-{[4-amino-3-(7-hydroxy-2,2-dimethyl-2,3-dihydro-1-benzofuran-4-yl)-1H-pyrazolo[3,4-d]pyrimidin-1-yl]methyl}-5-(3-hydroxyprop-1-yn-1-yl)-3-[1-(4-methylphenyl)cyclopropyl]quinazolin-4(3H)-one], the inhibition at 1 µM in experiment [1] and in experiment [2] was 80 to 100% in each case.

`Cc1ccc(C2(n3c(Cn4nc(-c5ccc(O)c6c5CC(C)(C)O6)c5c(N)ncnc54)nc4cccc(-c5ccnn5C)c4c3=O)CC2)cc1` [compound 40, 2-{[4-amino-3-(7-hydroxy-2,2-dimethyl-2,3-dihydro-1-benzofuran-4-yl)-1H-pyrazolo[3,4-d]pyrimidin-1-yl]methyl}-3-[1-(4-methylphenyl)cyclopropyl]-5-(1-methyl-1H-pyrazol-5-yl)quinazolin-4(3H)-one]: the results for the inhibition at 1 µM in experiment [1] and in experiment [2] were 80 to 100% and 60 to 80%, respectively.

As to `Cc1ccc(C)n1-n1c(Cn2nc(-c3ccc(O)c4c3CC(C)(C)O4)c3c(N)ncnc32)nc2cccc(-c3ccnn3C)c2c1=O` [compound 41, 2-{[4-amino-3-(7-hydroxy-2,2-dimethyl-2,3-dihydro-1-benzofuran-4-yl)-1H-pyrazolo[3,4-d]pyrimidin-1-yl]methyl}-3-(2,5-dimethyl-1H-pyrrol-1-yl)-5-(1-methyl-1H-pyrazol-5-yl)quinazolin-4(3H)-one], the inhibition at 1 µM in experiment [1] and in experiment [2] was 80 to 100% each time.

Regarding `Cc1ccc(C)n1-n1c(Cn2nc(-c3ccc(O)c4c3CC(C)(C)O4)c3c(N)ncnc32)nc2cccc(C#CCO)c2c1=O` [compound 42, 2-{[4-amino-3-(7-hydroxy-2,2-dimethyl-2,3-dihydro-1-benzofuran-4-yl)-1H-pyrazolo[3,4-d]pyrimidin-1-yl]methyl}-3-(2,5-dimethyl-1H-pyrrol-1-yl)-5-(3-hydroxyprop-1-yn-1-yl)quinazolin-4(3H)-one], the inhibition at 1 µM in experiment [1] and in experiment [2] was 80 to 100% throughout.

Source of the values: patent publication US20190127381A1, “SUBSTITUTED FUSED PYRIMIDINONE COMPOUNDS” (TORRENT PHARMACEUTICALS LIMITED, priority 2016, published 2019).
